Reference: PubChem BioAssay (NCI)
Where “and” joins values, the source holds several entries; their conditions need not be identical. Equal values may be shown once.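 Test compounds were applied to cells in 96-well plates for 48 hours at 5 doses. Here, GI50 denotes the concentration required for 50% inhibition of growth. TGI marks complete inhibition of growth.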

Tests used:
Assay in all cases: NCI tumour cell line growth inhibition, 48 h
K-562 leukemia = system: K-562 leukemia
SR leukemia = system: SR leukemia
DLD-1 colon = system: DLD-1 colon
UACC-257 melanoma = system: UACC-257 melanoma
KM20L2 colon = system: KM20L2 colon
LOX IMVI melanoma = system: LOX IMVI melanoma
SW-620 colon = system: SW-620 colon
MDA-MB-435 = system: MDA-MB-435
HS 578T breast = system: HS 578T breast
MDA-MB-231 breast = system: MDA-MB-231 breast

`CC1(Cl)CC2OC3(Br)C=CC(C)(O)C2(CC1Br)C3(C)C` (stereo not given) gave a TGI (K-562 leukemia) of over 100 µM, a TGI (SR leukemia) of over 100 µM and a TGI (DLD-1 colon) of over 100 µM. For the same compound, the TGI (UACC-257 melanoma) was over 100 µM, the TGI (KM20L2 colon) was over 100 µM and the TGI (LOX IMVI melanoma) was over 100 µM. For the same compound, the TGI (SW-620 colon) was over 100 µM.
Work on `CC(=O)Oc1cc(C)c2c(c1OC(C)=O)CC1(O2)[C@@H](C)CCC2[C@@]3(C)CC[C@H](OC(C)=O)C(C)(C)C3CC[C@]21C` (stereo not given in full) yielded a TGI (SR leukemia) of 11.3 µM, a TGI (DLD-1 colon) of 15.1 µM and a TGI (UACC-257 melanoma) of 21.8 µM. The TGI (KM20L2 colon) was 28.3 µM, the TGI (LOX IMVI melanoma) was 14 µM and the TGI (SW-620 colon) was 12.3 µM.
Work on `Nc1nc2sc3ccccc3c(=O)n2n1` yielded a TGI (K-562 leukemia) of over 100 µM, a TGI (SR leukemia) of over 100 µM and a TGI (DLD-1 colon) of over 100 µM. It also gave a TGI (UACC-257 melanoma) of over 100 µM, a TGI (KM20L2 colon) of over 100 µM and a TGI (LOX IMVI melanoma) of over 100 µM. For the same compound, the TGI (SW-620 colon) was over 100 µM.
For `CC(=O)N1c2ccccc2C2=CC3C4C(=O)N(c5ccccc5)C(=O)C4C21C1C(=O)N(c2ccccc2)C(=O)C31` (stereo not given), the TGI (K-562 leukemia) was over 100 µM, the TGI (SR leukemia) was over 100 µM and the TGI (DLD-1 colon) was over 100 µM. For the same compound, the TGI (UACC-257 melanoma) was over 100 µM, the TGI (KM20L2 colon) was 70 µM and the TGI (LOX IMVI melanoma) was over 100 µM. The TGI (SW-620 colon) was over 100 µM.
Work on `Cc1noc2cccc(OCc3ccccc3)c12` yielded a TGI (K-562 leukemia) of over 100 µM, a TGI (SR leukemia) of over 100 µM and a TGI (DLD-1 colon) of over 100 µM. The TGI (UACC-257 melanoma) was over 100 µM, the TGI (KM20L2 colon) was over 100 µM and the TGI (LOX IMVI melanoma) was over 100 µM. It also gave a TGI (SW-620 colon) of over 100 µM.
`O=S(=O)(N/N=C/c1ccc(Cl)c(Cl)c1)c1ccccc1` was tested, and the TGI (K-562 leukemia) was over 100 µM, the TGI (SR leukemia) was over 100 µM and the TGI (DLD-1 colon) was over 100 µM. The TGI (UACC-257 melanoma) was over 100 µM, the TGI (KM20L2 colon) was over 100 µM and the TGI (LOX IMVI melanoma) was over 100 µM. It also gave a TGI (SW-620 colon) of over 100 µM.
`COC(c1cccc(C(O)(C(F)(F)F)C(F)(F)F)c1)(C(F)(F)F)C(F)(F)F` was tested, and the TGI (SR leukemia) was 51.4 µM, the TGI (DLD-1 colon) was 34.6 µM and the TGI (UACC-257 melanoma) was 42.3 µM. It also gave a TGI (KM20L2 colon) of 31.2 µM, a TGI (LOX IMVI melanoma) of 34.1 µM and a TGI (SW-620 colon) of 32.9 µM.
With `CCOC(=O)N1C2C=C(C)C(ON2C(=O)c2ccccc2)C2C(C)C(=O)N21` (stereo not given) the TGI (K-562 leukemia) was over 100 µM, the TGI (SR leukemia) was over 100 µM and the TGI (DLD-1 colon) was over 100 µM. For the same compound, the TGI (UACC-257 melanoma) was over 100 µM, the TGI (KM20L2 colon) was over 100 µM and the TGI (LOX IMVI melanoma) was over 100 µM. The TGI (SW-620 colon) was over 100 µM.
Work on `N#CC(/C(=N/NC(=O)C(=O)NN)C(=O)Nc1nc([N+](=O)[O-])cs1)c1ccc(Cl)cc1` (stereo not given) yielded a TGI (DLD-1 colon) of over 100 µM, a TGI (UACC-257 melanoma) of over 100 µM and a TGI (KM20L2 colon) of over 100 µM. For the same compound, the TGI (LOX IMVI melanoma) was over 100 µM and the TGI (SW-620 colon) was over 100 µM.
With `Cc1ccccc1C1=[N+]([O-])c2ccccc2C1=O` the TGI (K-562 leukemia) was 45.7 µM, the TGI (SR leukemia) was over 100 µM and the TGI (DLD-1 colon) was 31.9 µM. For the same compound, the TGI (UACC-257 melanoma) was 27.9 µM, the TGI (KM20L2 colon) was 32.9 µM and the TGI (LOX IMVI melanoma) was 35 µM. For the same compound, the TGI (SW-620 colon) was 45.1 µM.
`COc1ccc2c(c1)C(=O)N1CCOC1C2C(=O)O` (stereo not given) showed a TGI (K-562 leukemia) of over 100 µM, a TGI (SR leukemia) of over 100 µM and a TGI (DLD-1 colon) of over 100 µM. For the same compound, the TGI (UACC-257 melanoma) was over 100 µM, the TGI (KM20L2 colon) was over 100 µM and the TGI (LOX IMVI melanoma) was over 100 µM. The TGI (SW-620 colon) was over 100 µM.
In the case of `O=C(C=Nc1ccccc1C(=O)[O-])c1cccs1.O=C(C=Nc1ccccc1C(=O)[O-])c1cccs1.[Co+2]`, the TGI (K-562 leukemia) is reported as over 100 µM, the TGI (SR leukemia) is reported as over 100 µM and the TGI (DLD-1 colon) is reported as over 100 µM. For the same compound, the TGI (UACC-257 melanoma) was over 100 µM, the TGI (KM20L2 colon) was over 100 µM and the TGI (LOX IMVI melanoma) was over 100 µM. For the same compound, the TGI (SW-620 colon) was over 100 µM.
In the case of `CCCCCCCC(=O)NCC(O)CNC(=O)CCCCCCC`, the TGI (K-562 leukemia) is reported as over 100 µM, the TGI (SR leukemia) is reported as over 100 µM and the TGI (DLD-1 colon) is reported as over 100 µM. It also gave a TGI (UACC-257 melanoma) of over 100 µM, a TGI (KM20L2 colon) of over 100 µM and a TGI (LOX IMVI melanoma) of over 100 µM. It also gave a TGI (SW-620 colon) of over 100 µM.
In the case of `CC(=O)O[C@@]12CO[C@@H]1C[C@H](O)[C@@]1(C)C(=O)[C@H](O)C3=C(C)[C@@H](OC(=O)[C@H](O)[C@@H](NC(=O)OC(C)(C)C)c4ccccc4)C[C@@](O)([C@@H](OC(=O)c4ccccc4)[C@H]21)C3(C)C`, the GI50 (K-562 leukemia) is reported as 0.0147 µM and 0.0122 µM, the TGI (K-562 leukemia) is reported as 71.9 µM and the GI50 (SR leukemia) is reported as 0.0154 µM and 0.00407 µM. The TGI (SR leukemia) was 23.5 µM, the GI50 (DLD-1 colon) was 0.0352 µM and 0.0338 µM and the TGI (DLD-1 colon) was over 75.4 µM. It also gave a GI50 (UACC-257 melanoma) of 0.31 µM, a TGI (UACC-257 melanoma) of 57.9 µM and a GI50 (KM20L2 colon) of 0.00818 µM. The TGI (KM20L2 colon) was 0.022 µM, the GI50 (LOX IMVI melanoma) was 0.00308 µM and 0.00368 µM and the TGI (LOX IMVI melanoma) was 42.1 µM. For the same compound, the GI50 (SW-620 colon) was 0.00764 µM and 0.00646 µM and the TGI (SW-620 colon) was over 68.4 µM.
With `C/C=C/C1=C(Cl)C(=O)[C@@H](Cl)[C@@]1(O)C(=O)OC` the TGI (K-562 leukemia) was 14.4 µM, the TGI (SR leukemia) was 21.7 µM and the TGI (DLD-1 colon) was 9.35 µM. For the same compound, the TGI (UACC-257 melanoma) was 3.5 µM, the TGI (KM20L2 colon) was 15.9 µM and the TGI (LOX IMVI melanoma) was 6.37 µM. The TGI (SW-620 colon) was 3.1 µM.
In the case of `O=C(CCC(=O)Nc1cccc(Cl)c1)CC(=O)c1ccc(F)cc1`, the TGI (K-562 leukemia) is reported as over 100 µM, the TGI (SR leukemia) is reported as over 100 µM and the TGI (DLD-1 colon) is reported as over 100 µM. For the same compound, the TGI (UACC-257 melanoma) was over 100 µM, the TGI (KM20L2 colon) was over 100 µM and the TGI (LOX IMVI melanoma) was over 100 µM. For the same compound, the TGI (SW-620 colon) was over 100 µM.
`[Cl][Sn]([Cl])([c]1ccccc1)[c]1ccccc1` was tested, and the GI50 (K-562 leukemia) was 2.69 µM, the TGI (K-562 leukemia) was 12.3 µM and the GI50 (SR leukemia) was 3.93 µM. For the same compound, the TGI (SR leukemia) was 25.7 µM, the GI50 (DLD-1 colon) was 4.51 µM and the TGI (DLD-1 colon) was 17.5 µM. It also gave a GI50 (UACC-257 melanoma) of 13.6 µM, a TGI (UACC-257 melanoma) of 27 µM and a GI50 (KM20L2 colon) of 14.8 µM. The TGI (KM20L2 colon) was 28 µM, the GI50 (LOX IMVI melanoma) was 4.51 µM and the TGI (LOX IMVI melanoma) was 17.1 µM. For the same compound, the GI50 (SW-620 colon) was 3.02 µM and the TGI (SW-620 colon) was 10.2 µM.
In the case of `CN(C)CCN(C)CC1COC(C)(C)O1` (stereo not given), the TGI (K-562 leukemia) is reported as over 100 µM, the TGI (SR leukemia) is reported as over 100 µM and the TGI (DLD-1 colon) is reported as over 100 µM. The TGI (UACC-257 melanoma) was over 100 µM, the TGI (KM20L2 colon) was over 100 µM and the TGI (LOX IMVI melanoma) was over 100 µM. For the same compound, the TGI (SW-620 colon) was over 100 µM.
Compound `C/C(=N\NC(N)=S)c1cc(C)c(C)cc1C` has a TGI (K-562 leukemia) of over 100 µM, a TGI (SR leukemia) of over 100 µM and a TGI (DLD-1 colon) of over 100 µM. For the same compound, the TGI (UACC-257 melanoma) was over 100 µM, the TGI (KM20L2 colon) was over 100 µM and the TGI (LOX IMVI melanoma) was over 100 µM. The TGI (SW-620 colon) was over 100 µM.
In the case of `CCC[CH2][Sn]([CH2]CCC)([O]C(=O)c1cc(F)ccc1F)[O][Sn]([CH2]CCC)([CH2]CCC)[O]C(=O)c1cc(F)ccc1F`, the GI50 (K-562 leukemia) is reported as 0.0372 µM, the TGI (K-562 leukemia) is reported as 6.22 µM and the GI50 (MDA-MB-435) is reported as 0.446 µM. It also gave a TGI (MDA-MB-435) of 1.67 µM, a GI50 (SR leukemia) of 0.14 µM and a TGI (SR leukemia) of over 22.3 µM. It also gave a GI50 (HS 578T breast) of 0.237 µM, a TGI (HS 578T breast) of 0.994 µM and a GI50 (DLD-1 colon) of 0.206 µM. The TGI (DLD-1 colon) was 0.974 µM, the GI50 (UACC-257 melanoma) was 0.255 µM and the TGI (UACC-257 melanoma) was 1.21 µM. For the same compound, the GI50 (KM20L2 colon) was 0.779 µM, the TGI (KM20L2 colon) was 2.11 µM and the GI50 (LOX IMVI melanoma) was 0.132 µM. For the same compound, the TGI (LOX IMVI melanoma) was 0.306 µM, the GI50 (SW-620 colon) was 0.116 µM and the TGI (SW-620 colon) was 0.274 µM. For the same compound, the GI50 (MDA-MB-231 breast) was 0.436 µM and the TGI (MDA-MB-231 breast) was 1.63 µM.
`Cc1oc2c(C)c3oc(=O)cc(C)c3cc2c1CNC(=O)[C@@H]1OCCOCCOCCOCCOCCOC1C(=O)O` (stereo not given in full) gave a TGI (K-562 leukemia) of over 100 µM, a TGI (SR leukemia) of over 100 µM and a TGI (DLD-1 colon) of over 100 µM. For the same compound, the TGI (UACC-257 melanoma) was over 100 µM, the TGI (KM20L2 colon) was over 100 µM and the TGI (LOX IMVI melanoma) was over 100 µM. The TGI (SW-620 colon) was over 100 µM.
